Experimental findings from PMC9979702 (Bioorganic & Medicinal Chemistry Letters, 2023) are described below.

Series [1] concerns SARS-CoV-2. It is filed as cell-based. Particulars: Vero cells.
In series [2] the target is hERG (Homo sapiens, UniProt Q12809). Particulars: even at 100 µM.
Chain of hERG (Q12809 whole entry): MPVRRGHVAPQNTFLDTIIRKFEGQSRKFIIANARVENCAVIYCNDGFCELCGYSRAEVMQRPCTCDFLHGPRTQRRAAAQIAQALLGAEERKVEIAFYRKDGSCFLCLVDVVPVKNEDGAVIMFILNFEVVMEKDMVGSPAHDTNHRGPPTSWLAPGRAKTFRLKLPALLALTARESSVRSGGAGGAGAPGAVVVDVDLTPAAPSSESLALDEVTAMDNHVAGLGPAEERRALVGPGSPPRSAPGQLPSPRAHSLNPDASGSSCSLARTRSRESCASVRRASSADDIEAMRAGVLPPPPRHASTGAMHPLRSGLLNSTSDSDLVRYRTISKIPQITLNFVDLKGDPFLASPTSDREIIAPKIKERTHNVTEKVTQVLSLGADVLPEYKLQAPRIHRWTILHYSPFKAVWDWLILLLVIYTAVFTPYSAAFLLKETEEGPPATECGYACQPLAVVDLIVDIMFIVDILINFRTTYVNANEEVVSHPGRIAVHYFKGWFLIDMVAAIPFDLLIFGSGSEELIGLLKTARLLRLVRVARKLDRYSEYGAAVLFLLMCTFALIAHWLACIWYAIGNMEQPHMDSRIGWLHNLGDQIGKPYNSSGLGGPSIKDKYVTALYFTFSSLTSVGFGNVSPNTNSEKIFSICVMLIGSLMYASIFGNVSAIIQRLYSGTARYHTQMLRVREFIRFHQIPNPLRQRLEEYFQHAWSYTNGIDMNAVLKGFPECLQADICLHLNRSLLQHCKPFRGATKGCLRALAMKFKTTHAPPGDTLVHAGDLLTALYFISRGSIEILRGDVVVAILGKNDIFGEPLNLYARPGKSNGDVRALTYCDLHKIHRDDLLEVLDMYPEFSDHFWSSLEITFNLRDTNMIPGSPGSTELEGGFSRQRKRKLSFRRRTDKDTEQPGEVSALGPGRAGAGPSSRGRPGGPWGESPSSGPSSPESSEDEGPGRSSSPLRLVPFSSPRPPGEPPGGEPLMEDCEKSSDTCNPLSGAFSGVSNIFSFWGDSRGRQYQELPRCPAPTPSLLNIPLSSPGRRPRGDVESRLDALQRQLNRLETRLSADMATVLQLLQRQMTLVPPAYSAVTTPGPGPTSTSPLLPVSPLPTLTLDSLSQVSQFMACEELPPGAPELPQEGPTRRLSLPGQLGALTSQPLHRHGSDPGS

With `CN(C)CCCNc1[nH]c2cc(Cl)ccc2c(=O)c1C(=O)O` [Compound 7a, 7-chloro-2-((3-(dimethylamino)propyl)amino)-4-oxo-1,4-dihydroquinoline-3-carboxylic acid], the “antiviral activity against SARS-CoV-2 (in words)” value (shortened to “antiviral activity”) in series [1] is “no activity”. As to `O=C(O)c1c(Nc2cccc(F)c2)[nH]c2cc(Cl)ccc2c1=O` [Compound 9b, 7-chloro-2-((3-fluorophenyl)amino)-4-oxo-1,4-dihydroquinoline-3-carboxylic acid], the “hERG binding (in words)” value in series [2] was “no hERG binding was detected”. For `O=C(O)c1c(Nc2cccc(F)c2)[nH]c2cc(F)c(F)cc2c1=O` [Compound 9f, 6,7-difluoro-2-((3-fluorophenyl)amino)-4-oxo-1,4-dihydroquinoline-3-carboxylic acid], the “antiviral activity” value in series [1] is recorded as “had antiviral activity”. In the case of `O=c1cc(Nc2cccc(F)c2)[nH]c2cc(F)c(F)cc12` [Compound 10, 6,7-difluoro-2-((3-fluorophenyl)amino)quinolin-4(1H)-one], the “antiviral activity” value in series [1] was “no activity”.
